Measured values taken from ChEMBL document CHEMBL5154760, “Metabolism guided optimization of peptidomimetics as non-covalent proteasome inhibitors for cancer treatment” (Eur J Med Chem, 2022).
Activity calls are given as the source filed them. The calls are words filed in the database; no cut-off is given here.

biological target: 20S proteasome; assay: Inhibition of chymotrypsin-like activity of human 20S proteasome using Suc-Leu Leu-Val-Tyr-AMC as substrate preincubated for 15 mins followed by substrate addition measured by fluorescence assay; format: protein-complex assay; conditions: not given

**Q.** For CN(C(=O)C1CCN(C(=O)N[C@@H](CC(=O)NCC(C)(C)C)C(=O)N[C@@H](CCc2ccccc2)C(=O)N[C@@H]2CCCc3ccccc32)CC1)c1nccs1, which IC50 is on record?
**A.** 3.43 nM

**Q.** With C[C@@H](c1ccccc1)N(C)C(=O)[C@H](CCc1ccccc1)NC(=O)[C@H](CC(=O)NCC(C)(C)C)NC(=O)N1CCC(C(=O)N(C)c2cccnc2)CC1 as the compound, how does the IC50 read?
**A.** > 10000 nM

**Q.** Which IC50 does the source give for CC(C)(C)CNC(=O)C[C@H](NC(=O)N1CCC(NC(=O)Nc2ccc(Cl)cc2)CC1)C(=O)N[C@@H](CCc1ccccc1)C(=O)N[C@@H]1CCCc2ccccc21 here?
**A.** 41.2 nM

**Q.** With CC(C)(C)CNC(=O)C[C@H](NC(=O)N1CCC(C(=O)Nc2cccnc2)CC1)C(=O)N[C@@H](CCc1ccccc1)C(=O)N1CCc2ccccc2C1 as the compound, how does the IC50 read?
**A.** 1590 nM

**Q.** Which IC50 does the source give for C[C@H](NC(=O)[C@H](CCc1ccccc1)NC(=O)[C@H](CC(=O)NCC(C)(C)C)NC(=O)N1CCC(C(=O)Nc2cccnc2)CC1)c1ccccc1 here?
**A.** > 10000 nM

**Q.** With CC(C)(C)CNC(=O)C[C@H](NC(=O)N1CCC(C(=O)Nc2cccnc2)CC1)C(=O)N[C@@H](CCc1ccccc1)C(=O)N[C@@H]1CCCc2ccccc21 as the compound, how does the IC50 read?
**A.** 4.03 nM

**Q.** For CCN(C(=O)C1CCN(C(=O)N[C@@H](CC(=O)NCC(C)(C)C)C(=O)N[C@@H](CCc2ccccc2)C(=O)N[C@@H]2CCCc3ccccc32)CC1)c1ccccc1, which IC50 is on record?
**A.** 8.39 nM

**Q.** Which IC50 does the source give for CC(C)(C)CNC(=O)C[C@H](NC(=O)N1CCC(C(=O)Nc2cnccn2)CC1)C(=O)N[C@@H](CCc1ccccc1)C(=O)N1CCc2ccccc2C1 here?
**A.** > 10000 nM

**Q.** For CN(C(=O)C1CCN(C(=O)N[C@@H](CC(=O)NCC(C)(C)C)C(=O)N[C@@H](CCc2ccccc2)C(=O)N[C@@H]2CCCc3ccccc32)CC1)c1ccc(Cl)cc1, which IC50 is on record?
**A.** 6.95 nM

**Q.** For C[C@@H](NC(=O)[C@H](CCc1ccccc1)NC(=O)[C@H](CC(=O)NCC(C)(C)C)NC(=O)N1CCC(C(=O)Nc2cccnc2)CC1)c1ccccc1, which IC50 is on record?
**A.** 20.3 nM

**Q.** With CN(C(=O)C1CCN(C(=O)N[C@@H](CC(=O)NCC(C)(C)C)C(=O)N[C@@H](CCc2ccccc2)C(=O)N[C@@H]2CCCc3ccccc32)CC1)c1ccccc1Cl as the compound, how does the IC50 read?
**A.** 21.6 nM

**Q.** Which IC50 does the source give for CN(Cc1ccccc1Cl)C(=O)[C@H](CCc1ccccc1)NC(=O)[C@H](CC(=O)NCC(C)(C)C)NC(=O)N1CCC(C(=O)Nc2cccnc2)CC1 here?
**A.** 1740 nM

**Q.** For C[C@H](c1ccccc1)N(C)C(=O)[C@H](CCc1ccccc1)NC(=O)[C@H](CC(=O)NCC(C)(C)C)NC(=O)N1CCC(C(=O)N(C)c2cccnc2)CC1, which IC50 is on record?
**A.** > 10000 nM

**Q.** Which IC50 does the source give for C[C@@H](NC(=O)[C@H](CCc1ccccc1)NC(=O)[C@H](CC(=O)NCC(C)(C)C)NC(=O)N1CCC(C(=O)N(C)c2cccnc2)CC1)c1ccccc1 here?
**A.** 99.8 nM

**Q.** With CC(C)(C)CNC(=O)C[C@H](NC(=O)N1CCN(C(=O)Nc2ccc(Cl)cc2)CC1)C(=O)N[C@@H](CCc1ccccc1)C(=O)N[C@@H]1CCCc2ccccc21 as the compound, how does the IC50 read?
**A.** 23.7 nM

**Q.** For CN(C(=O)c1cccnc1)C1CCN(C(=O)N[C@@H](CC(=O)NCC(C)(C)C)C(=O)N[C@@H](CCc2ccccc2)C(=O)N[C@@H]2CCCc3ccccc32)CC1, which IC50 is on record?
**A.** 5.15 nM

test system: not listed separately; assay: In vivo inhibition of chymotrypsin-like activity of 20S proteasome in ICR mouse at 5 mg/kg, iv; format: functional; conditions: not given

**Q.** Which inhibition in vivo at 5 mg/kg does the source give for CN(C(=O)C1CCN(C(=O)N[C@@H](CC(=O)NCC(C)(C)C)C(=O)N[C@@H](CCc2ccccc2)C(=O)N[C@@H]2CCCc3ccccc32)CC1)c1nccs1 here?
**A.** 50%

**Q.** With CCN(C(=O)C1CCN(C(=O)N[C@@H](CC(=O)NCC(C)(C)C)C(=O)N[C@@H](CCc2ccccc2)C(=O)N[C@@H]2CCCc3ccccc32)CC1)c1ccccc1 as the compound, how does the inhibition in vivo at 5 mg/kg read?
**A.** 50%

biological target: 20S proteasome (Homo sapiens) (UniProt P49721+P20618+P28074+P28062+P28065+P28072+P25786+P25787+P25788+P25789+P28066+P60900+O14818+Q8TAA3+P40306+A5LHX3+P49720+P28070+Q99436); assay: Inhibition of chymotrypsin-like activity of 20S proteasome in human MM1.S cells assessed as accumulation of polyubiquitinated proteins at 10 to 1000 nM and measured by Western blot analysis; format: cell-based; conditions: dose 10-1000 nM

**Q.** With CN(C(=O)C1CCN(C(=O)N[C@@H](CC(=O)NCC(C)(C)C)C(=O)N[C@@H](CCc2ccccc2)C(=O)N[C@@H]2CCCc3ccccc32)CC1)c1nccs1 as the compound, how does the inhibition read?
**A.** Active

**Q.** For CCN(C(=O)C1CCN(C(=O)N[C@@H](CC(=O)NCC(C)(C)C)C(=O)N[C@@H](CCc2ccccc2)C(=O)N[C@@H]2CCCc3ccccc32)CC1)c1ccccc1, which inhibition is on record?
**A.** Active

test system: MM1.S; assay: Antiproliferative activity against human MM1.S cells after 72 hrs by MTS assay; format: functional, cell-based; conditions: not given

**Q.** Which IC50 does the source give for CN(C(=O)C1CCN(C(=O)N[C@@H](CC(=O)NCC(C)(C)C)C(=O)N[C@@H](CCc2ccccc2)C(=O)N[C@@H]2CCCc3ccccc32)CC1)c1nccs1 here?
**A.** 8.36 nM

**Q.** With CC(C)C[C@H](NC(=O)[C@H](CCc1ccccc1)NC(=O)CN1CCOCC1)C(=O)N[C@@H](Cc1ccccc1)C(=O)N[C@@H](CC(C)C)C(=O)[C@]1(C)CO1 as the compound, how does the IC50 read?
**A.** 9.15 nM

**Q.** With CC(C)(C)CNC(=O)C[C@H](NC(=O)N1CCC(C(=O)Nc2cccnc2)CC1)C(=O)N[C@@H](CCc1ccccc1)C(=O)N[C@@H]1CCCc2ccccc21 as the compound, how does the IC50 read?
**A.** 35.1 nM

**Q.** Which IC50 does the source give for CCN(C(=O)C1CCN(C(=O)N[C@@H](CC(=O)NCC(C)(C)C)C(=O)N[C@@H](CCc2ccccc2)C(=O)N[C@@H]2CCCc3ccccc32)CC1)c1ccccc1 here?
**A.** 9.07 nM

**Q.** For CN(C(=O)C1CCN(C(=O)N[C@@H](CC(=O)NCC(C)(C)C)C(=O)N[C@@H](CCc2ccccc2)C(=O)N[C@@H]2CCCc3ccccc32)CC1)c1ccc(Cl)cc1, which IC50 is on record?
**A.** 26.9 nM

**Q.** For CN(C(=O)c1cccnc1)C1CCN(C(=O)N[C@@H](CC(=O)NCC(C)(C)C)C(=O)N[C@@H](CCc2ccccc2)C(=O)N[C@@H]2CCCc3ccccc32)CC1, which IC50 is on record?
**A.** 33.5 nM

test system: not listed separately; assay: Stability of the compound in mouse blood assessed as half-life measured by LC-MS/MS analysis; format: ADME, tissue-based; conditions: not given

**Q.** For CN(C(=O)C1CCN(C(=O)N[C@@H](CC(=O)NCC(C)(C)C)C(=O)N[C@@H](CCc2ccccc2)C(=O)N[C@@H]2CCCc3ccccc32)CC1)c1nccs1, which half-life is on record?
**A.** 1.4 h

**Q.** With CCN(C(=O)C1CCN(C(=O)N[C@@H](CC(=O)NCC(C)(C)C)C(=O)N[C@@H](CCc2ccccc2)C(=O)N[C@@H]2CCCc3ccccc32)CC1)c1ccccc1 as the compound, how does the half-life read?
**A.** 5.49 h

test system: RPMI-8226; assay: Antiproliferative activity against human RPMI-8226 cells after 72 hrs by MTS assay; format: functional, cell-based; conditions: RPMI-8226, 72 h

**Q.** For CN(C(=O)C1CCN(C(=O)N[C@@H](CC(=O)NCC(C)(C)C)C(=O)N[C@@H](CCc2ccccc2)C(=O)N[C@@H]2CCCc3ccccc32)CC1)c1nccs1, which IC50 is on record?
**A.** 12.1 nM

**Q.** Which IC50 does the source give for CC(C)C[C@H](NC(=O)[C@H](CCc1ccccc1)NC(=O)CN1CCOCC1)C(=O)N[C@@H](Cc1ccccc1)C(=O)N[C@@H](CC(C)C)C(=O)[C@]1(C)CO1 here?
**A.** 6.35 nM

**Q.** For CC(C)(C)CNC(=O)C[C@H](NC(=O)N1CCC(C(=O)Nc2cccnc2)CC1)C(=O)N[C@@H](CCc1ccccc1)C(=O)N[C@@H]1CCCc2ccccc21, which IC50 is on record?
**A.** 40.7 nM

**Q.** With CCN(C(=O)C1CCN(C(=O)N[C@@H](CC(=O)NCC(C)(C)C)C(=O)N[C@@H](CCc2ccccc2)C(=O)N[C@@H]2CCCc3ccccc32)CC1)c1ccccc1 as the compound, how does the IC50 read?
**A.** 15.3 nM

**Q.** Which IC50 does the source give for CN(C(=O)C1CCN(C(=O)N[C@@H](CC(=O)NCC(C)(C)C)C(=O)N[C@@H](CCc2ccccc2)C(=O)N[C@@H]2CCCc3ccccc32)CC1)c1ccc(Cl)cc1 here?
**A.** 20.8 nM

**Q.** For CN(C(=O)c1cccnc1)C1CCN(C(=O)N[C@@H](CC(=O)NCC(C)(C)C)C(=O)N[C@@H](CCc2ccccc2)C(=O)N[C@@H]2CCCc3ccccc32)CC1, which IC50 is on record?
**A.** 60.4 nM

test system: MV4-11; assay: Antiproliferative activity against human MV4-11 cells after 72 hrs by MTS assay; format: functional, cell-based; conditions: MV4-11, 72 h

**Q.** Which IC50 does the source give for CN(C(=O)C1CCN(C(=O)N[C@@H](CC(=O)NCC(C)(C)C)C(=O)N[C@@H](CCc2ccccc2)C(=O)N[C@@H]2CCCc3ccccc32)CC1)c1nccs1 here?
**A.** 1.57 nM

**Q.** For CC(C)C[C@H](NC(=O)[C@H](CCc1ccccc1)NC(=O)CN1CCOCC1)C(=O)N[C@@H](Cc1ccccc1)C(=O)N[C@@H](CC(C)C)C(=O)[C@]1(C)CO1, which IC50 is on record?
**A.** 0.983 nM

**Q.** Which IC50 does the source give for CC(C)(C)CNC(=O)C[C@H](NC(=O)N1CCC(C(=O)Nc2cccnc2)CC1)C(=O)N[C@@H](CCc1ccccc1)C(=O)N[C@@H]1CCCc2ccccc21 here?
**A.** 6.83 nM

**Q.** For CCN(C(=O)C1CCN(C(=O)N[C@@H](CC(=O)NCC(C)(C)C)C(=O)N[C@@H](CCc2ccccc2)C(=O)N[C@@H]2CCCc3ccccc32)CC1)c1ccccc1, which IC50 is on record?
**A.** 2.46 nM

**Q.** Which IC50 does the source give for CN(C(=O)C1CCN(C(=O)N[C@@H](CC(=O)NCC(C)(C)C)C(=O)N[C@@H](CCc2ccccc2)C(=O)N[C@@H]2CCCc3ccccc32)CC1)c1ccc(Cl)cc1 here?
**A.** 4.06 nM

**Q.** For CN(C(=O)c1cccnc1)C1CCN(C(=O)N[C@@H](CC(=O)NCC(C)(C)C)C(=O)N[C@@H](CCc2ccccc2)C(=O)N[C@@H]2CCCc3ccccc32)CC1, which IC50 is on record?
**A.** 7.65 nM
